What all share (type): biochemical, Paris polyphylla var. yunnanensis
One experiment has as its system UGT80A41. The experiment in a line: initial rates of glucoside formation, UPLC-MS/MS, Michaelis-Menten fit. To be noted: read-out: apparent KM; 2 mmol/L UDP-glucose, 50 mmol/L Tris-HCl pH 8.0, 37 °C, 30 min.
Another experiment deals with UGT80A40. The experiment is described as above. To be noted: read-out: apparent KM; 2 mmol/L UDP-glucose, 50 mmol/L Tris-HCl pH 8.0, 37 °C, 30 min.
The next experiment relates to UGT73CE1. In words: initial rates of rhamnoside formation, UPLC-MS/MS, Michaelis-Menten fit. To be noted: read-out: apparent KM; 1.5 mmol/L UDP-rhamnose, 50 mmol/L Tris-HCl pH 8.0, 37 °C, 30 min.

For orientation: Km means the substrate concentration at which the rate is half of its maximum.

The structures appear in SMILES notation.

Consider `C[C@@H]1CC[C@@]2(OC1)O[C@H]1C[C@H]3[C@@H]4CC=C5C[C@@H](O)CC[C@]5(C)[C@H]4CC[C@]3(C)[C@H]1[C@@H]2C` [compound 1, diosgenin], for which the values for the Km in the experiment with UGT80A41 and with UGT80A40 were 5.9 ± 0.5 µM and 6.1 ± 0.7 µM, respectively.

Turning to `C[C@@H]1CC[C@@]2(OC1)O[C@H]1C[C@H]3[C@@H]4CC=C5C[C@@H](O[C@@H]6O[C@H](CO)[C@@H](O)[C@H](O)[C@H]6O)CC[C@]5(C)[C@H]4CC[C@]3(C)[C@H]1[C@@H]2C` [compound 3, trillin], the Km with UGT73CE1 turned out to be 7.1 ± 2.1 µM.
